Results published in PubChem BioAssay AID651630 (Sanford-Burnham Center for Chemical Genomics, 2012).
Activity calls are given as the source filed them.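 The calls were made as follows: active = lipid-stain IC50 at or below a set limit, with nuclear-stain toxicity IC50 at least five times higher; inactive = the rest.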

Legend:
[1] = system: DAPI; assay: triacylglycerol accumulation inhibitor potency, dose response, cell-based, panel, Nile Red and DAPI fluorescence, H9c2 (AID 651630); conditions: H9c2 cells, DAPI nuclear fluorescence (cytotoxicity counter-readout), oleic acid;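 also: cells exposed to compound overnight before fixation and staining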
[2] = system: TAG; assay: as above; conditions: H9c2 cells, Nile Red TAG fluorescence, oleic acid

Structure (SMILES) | IC50 cytotoxicity (DAPI nuclear signal decrease) ([1]; mean of runs) | IC50 cytotoxicity (DAPI nuclear signal decrease) ([1]; run 1) [µM] | IC50 cytotoxicity (DAPI nuclear signal decrease) ([1]; run 2) [µM] | IC50 ([2]; mean of runs) | IC50 ([2]; run 1) [µM] | IC50 ([2]; run 2) [µM]
O=c1cc(-c2ccccc2)[nH]c2ccc(F)cc12 | > 25 µM (inactive) | > 25 | > 25 | > 25 µM (inactive) | > 25 | > 25
CCN1CCN(c2ncc3c(n2)CC(c2cc(OC)c(OC)c(OC)c2)CC3=O)CC1 (stereo unspecified) | > 25 µM (inactive) | > 25 | > 25 | > 25 µM (inactive) | > 25 | > 25
CCC(C)(C)NC(=O)C(c1ccc(OC)cc1)N(Cc1cccs1)C(=O)CCC(=O)Nc1cc(C)on1 (stereo unspecified) | > 25 µM (inactive) | > 25 | > 25 | 13.3 µM | 13.1 | 13.5
Cc1ccc(NC(=O)c2nc[nH]c2C(=O)NCCCCNC(=O)c2[nH]cnc2C(=O)Nc2ccc(C)cc2)cc1 | > 25 µM (inactive) | > 25 | > 25 | 5.46 µM | 6.27 | 4.66
CC(C)C(C)(C#N)NC(=O)CSc1nc2scc(-c3ccco3)c2c(=O)n1-c1ccccc1 (stereo unspecified) | > 25 µM (inactive) | > 25 | > 25 | 10.5 µM | 11.4 | 9.69
CCOC(=O)[C@H]1[C@H]2COc3ccc(Cl)cc3[C@@H]2N2C(=O)c3cc(OC)ccc3NC(=O)[C@@]12C | > 25 µM (inactive) | > 25 | > 25 | > 25 µM (inactive) | > 25 | > 25
FC(F)Oc1ccc(-c2csc(NNC3=NCCCCC3)n2)cc1 | – | > 25 | > 25 | 2.55 µM | 2.29 | 2.81
CN(C)C(=S)N=c1ssc(=S)n1Cc1ccco1 | > 25 µM (inactive) | > 25 | > 25 | > 25 µM (inactive) | > 25 | > 25
COc1ccc(NC(=S)N(CCCN2CCCC2)Cc2cccn2Cc2ccc(Cl)cc2)cc1Cl | – | 24.1 | > 25 | – | 16.8 | > 25
C[C@H]1CN([C@@H](C)CO)C(=O)c2cc(NC(=O)Nc3cccc4ccccc34)ccc2O[C@@H]1CN(C)Cc1ccc(-c2ccccc2)cc1 | > 25 µM (inactive) | > 25 | > 25 | – | 20.2 | > 25
O=C(Nc1cccc(-c2csc(Nc3ccc(Cl)cc3)n2)c1)c1cccc(C(F)(F)F)c1 | > 25 µM (inactive) | > 25 | > 25 | 15.2 µM (inactive) | 13.6 | 16.7
CCOc1ccc(CCNC(=O)CN(C)S(=O)(=O)c2cccc3nsnc23)cc1OCC | > 25 µM (inactive) | > 25 | > 25 | 17.5 µM (inactive) | 14.2 | 20.8
CC(C)C[C@H](CO)N(Cc1ccccc1)S(=O)(=O)N(Cc1ccccc1)[C@@H](CO)CC(C)C | > 25 µM (inactive) | > 25 | > 25 | – | 9.64 | > 25
Cc1cc(C(=O)COC(=O)c2ccc([N+](=O)[O-])o2)c(C)n1CC1CCCO1 (stereo unspecified) | – | 16.4 | > 25 | 19.2 µM (inactive) | 18.9 | 19.4
C=CCC[C@@H](Cc1ccc(F)cc1)C(=O)OC[C@@H](NC(=O)[C@@H](CC=C)CC(=O)N[C@H](CO)Cc1ccccc1)C(C)(C)C | > 25 µM (inactive) | > 25 | > 25 | 9.45 µM | 8.65 | 10.2
COc1cccc(NC(=O)N2CCc3nc(Nc4ccc(C(C)C)cc4)ncc3C2)c1 | – | > 25 | > 25 | 2.73 µM | 2.94 | 2.52
c1ccc(OCCNc2nc(NCC3CC3)nc3cc(-c4ccccc4)sc23)cc1 | > 25 µM (inactive) | > 25 | > 25 | 12.8 µM | 12.7 | 12.9

Structure (SMILES) | IC50 cytotoxicity (DAPI nuclear signal decrease) ([1]; mean of runs) | IC50 cytotoxicity (DAPI nuclear signal decrease) ([1]; run 1) [µM] | IC50 cytotoxicity (DAPI nuclear signal decrease) ([1]; run 2) [µM] | IC50 ([2]; mean of runs) | IC50 ([2]; run 1) [µM] | IC50 ([2]; run 2) [µM]
Cc1cc(=O)oc2cc(NC(=O)c3cccc(Br)c3)ccc12 | > 25 µM (inactive) | > 25 | > 25 | > 25 µM (inactive) | > 25 | > 25
COc1ccc2[nH]c3c(c2c1)CCN1C(=O)C(CC(=O)NCc2cccc(C(F)(F)F)c2)C[C@H](C(=O)N2CCCCC2)[C@@]31CCc1ccccc1 (stereo partly specified) | > 25 µM (inactive) | > 25 | > 25 | 10 µM | 14.8 | 5.34
Oc1cccc2cc(-c3ccncc3)cnc12 | > 25 µM (inactive) | > 25 | > 25 | > 25 µM (inactive) | > 25 | > 25
COC(=O)C1=C(c2ccc(OCc3ccccc3)cc2)C[C@@H]2CC[C@H]1N2C(=O)NCc1ccc(C(C)(C)C)cc1 | > 25 µM (inactive) | > 25 | > 25 | 16.7 µM (inactive) | 14.2 | 19.1
O=P(O)(O)CN1CCNCCN(CP(=O)(O)O)CCNCC1 | > 25 µM (inactive) | > 25 | > 25 | – | 24.7 | > 25
O=C(Cn1cc[n+](CC(=O)c2ccc(Cl)cc2Cl)c1)c1ccc(Cl)cc1Cl | > 25 µM (inactive) | > 25 | > 25 | – | > 25 | 20.9
O=C(Nc1cccc2ncccc12)c1ccc(Cl)cc1 | > 25 µM (inactive) | > 25 | > 25 | 6.22 µM | 6.27 | 6.17
CC(C)CCNCC(O)CON=C1c2ccccc2-c2ccccc21 (stereo unspecified) | > 25 µM (inactive) | > 25 | > 25 | > 25 µM (inactive) | > 25 | > 25
CCCCCC(/C=N/Nc1ccc(S(=O)(=O)N2CCOCC2)cc1[N+](=O)[O-])=C\c1ccccc1 | > 25 µM (inactive) | > 25 | > 25 | 14.4 µM | 12.8 | 15.9
Cc1cc(NC(=O)CSc2nc3ccccc3c(=O)n2C2CCCC2)no1 | > 25 µM (inactive) | > 25 | > 25 | 9.22 µM | 7.24 | 11.2
Fc1ccc(Oc2nc(-c3ccccn3)nc3ccccc23)cc1 | > 25 µM (inactive) | > 25 | > 25 | > 25 µM (inactive) | > 25 | > 25
Cc1nc(N/N=C/c2cccc(F)c2)cc(N2CCOCC2)n1 | > 25 µM (inactive) | > 25 | > 25 | 13.8 µM | 10.9 | 16.6
CN(C)CCCNC(=O)C[C@H]1C[C@H](C(=O)N2CCCCC2)[C@@]2(CCc3ccccc3)c3[nH]c4cc(-c5ccco5)ccc4c3CCN2C1=O | > 25 µM (inactive) | > 25 | > 25 | – | > 25 | 14.5
CCOc1ccc(CN(C)C(=O)CCl)cc1 | > 25 µM (inactive) | > 25 | > 25 | – | > 25 | 22.6
CCc1nn2c(N3CCOCC3)cc(C)nc2c1-c1ccc(F)cc1 | > 25 µM (inactive) | > 25 | > 25 | – | > 25 | < 0.78
Cc1c(C(=O)N2CC3(CC(c4cccc(NC(=O)CC(c5ccccc5)c5ccccc5)c4)=NO3)C[C@@H]2C(N)=O)cc([N+](=O)[O-])cc1[N+](=O)[O-] (stereo partly specified) | > 25 µM (inactive) | > 25 | > 25 | 12.2 µM | 11.8 | 12.6
CCOC(=O)c1cc(-c2ccccc2)sc1NC(=O)COC(=O)c1cccc(S(N)(=O)=O)c1 | > 25 µM (inactive) | > 25 | > 25 | – | > 25 | 21.4
